# Test results taken from PubChem BioAssay AID230 (DTP/NCI, 2004).
# Values joined by “and” are separate entries in the source; they are usually repeats but may differ in a detail not shown here. Equal values may be shown once. Inconclusive results and toxic doses are left out.
# Tested on: C3H/He mice, Gardner lymphosarcoma 6C3HED ip, survival T/C
# Test: NCI In Vivo Anticancer Drug Screen. Data for tumor model Lymphosarcoma Gardner 6C3HED (intraperitoneal) in C3H/He mice
# Conditions: higher = longer survival
# Protocol: The antitumor activity of compounds was measured in mice bearing transplantable tumors. Survival or tumor size were measured and the results are expressed as the measurement made in the treated group (T) divided by the measurement made in the vehicle treated control group (C). The tumor model used in this assay is Lymphosarcoma Gardner 6C3HED (intraperitoneal) in C3H/He mice
# [1] = endpoint: survival time, mean or median, dose: 2.0 mg/kg/injection, schedule: Q01DX010 (ip), vehicle: saline
# [2] = endpoint: survival time, mean or median, dose: 4.0 mg/kg/injection, schedule: Q01DX010 (ip), vehicle: saline
# [3] = endpoint: survival time, mean or median, dose: 125.0 micrograms/kg/injection, schedule: Q01DX010 (ip), vehicle: saline
# [4] = endpoint: survival time, mean or median, dose: 250.0 micrograms/kg/injection, schedule: Q01DX010 (ip), vehicle: saline
# [5] = endpoint: survival time, mean or median, dose: 25.0 mg/kg/injection, schedule: Q01DX010 (ip), vehicle: saline
# [6] = endpoint: survival time, mean or median, dose: 50.0 mg/kg/injection, schedule: Q01DX010 (ip), vehicle: saline
# [7] = endpoint: survival time, mean or median, dose: 100.0 mg/kg/injection, schedule: Q01DX010 (ip), vehicle: saline
# [8] = endpoint: median survival time, dose: 100.0 mg/kg/injection, schedule: Q01DX005 (ip), vehicle: water
# [9] = endpoint: median survival time, dose: 200.0 mg/kg/injection, schedule: Q01DX005 (ip), vehicle: water
# [10] = endpoint: median survival time, dose: 400.0 mg/kg/injection, schedule: Q01DX005 (ip), vehicle: water
# [11] = endpoint: median survival time, dose: 800.0 mg/kg/injection, schedule: Q01DX005 (ip), vehicle: water
# [12] = endpoint: survival time, mean or median, dose: 62.5 mg/kg/injection, schedule: Q01DX010 (ip), vehicle: saline
# [13] = endpoint: survival time, mean or median, dose: 125.0 mg/kg/injection, schedule: Q01DX010 (ip), vehicle: saline
# [14] = endpoint: survival time, mean or median, dose: 0.5 mg/kg/injection, schedule: Q01DX010 (ip), vehicle: saline
# [15] = endpoint: survival time, mean or median, dose: 1.0 mg/kg/injection, schedule: Q01DX010 (ip), vehicle: saline
# [16] = endpoint: survival time, mean or median, dose: 3.13 mg/kg/injection, schedule: Q01DX010 (ip), vehicle: saline
# [17] = endpoint: survival time, mean or median, dose: 6.25 mg/kg/injection, schedule: Q01DX010 (ip), vehicle: saline
# [18] = endpoint: survival time, mean or median, dose: 12.5 mg/kg/injection, schedule: Q01DX010 (ip), vehicle: saline
# [19] = endpoint: survival time, mean or median, dose: 10.0 mg/kg/injection, schedule: Q01DX010 (ip), vehicle: saline
compound,measurement,setting,value
C=CC(CN1CC1)OC(C)=O (stereo not given),T/C,[1],107 % of control
same,T/C,[2],123 % of control
O[C@H](CN1CC1)[C@@H](O)CN1CC1,T/C,[3],103 % of control
same,T/C,[4],114 % of control and 203 % of control
same,T/C,"endpoint: survival time, mean or median, dose: 500.0 micrograms/kg/injection, schedule: Q01DX010 (ip), vehicle: saline",169 % of control
NC(=O)n1cccn1,T/C,[5],89 % of control
same,T/C,[6],96 % of control
same,T/C,[7],96 % of control
same,T/C,"endpoint: survival time, mean or median, dose: 200.0 mg/kg/injection, schedule: Q01DX010 (ip), vehicle: saline",100 % of control
Nc1nc(N)c2nc(CNc3ccc(C(=O)NC(CCC(=O)O)C(=O)O)cc3)cnc2n1 (stereo not given),T/C,"endpoint: survival time, mean or median, dose: 0.03 mg/kg/injection, schedule: Q01DX010 (ip), vehicle: other",95 % of control and 100 % of control
same,T/C,"endpoint: survival time, mean or median, dose: 0.05 mg/kg/injection, schedule: Q01DX010 (ip), vehicle: other",100 % of control and 110 % of control
same,T/C,"endpoint: survival time, mean or median, dose: 0.1 mg/kg/injection, schedule: Q01DX010 (ip), vehicle: other",100 % of control and 110 % of control
NC(=O)CC(N)C(=O)O (stereo not given),T/C,[8],92 % of control
same,T/C,[9],100 % of control
same,T/C,[10],92 % of control
same,T/C,[11],92 % of control
O=c1[nH]c(=O)n(C2CC(O)C(CO)O2)cc1C(F)(F)F (stereo not given),T/C,"endpoint: survival time, mean or median, dose: 31.3 mg/kg/injection, schedule: Q01DX010 (ip), vehicle: saline",119 % of control
same,T/C,[12],119 % of control
same,T/C,[13],100 % of control
[N-]=[N+]=CC(=O)CCC(N)C(=O)O (stereo not given),T/C,"endpoint: survival time, mean or median, dose: 0.03 mg/kg/injection, schedule: Q01DX010 (ip), vehicle: saline",100 % of control and 105 % of control
same,T/C,"endpoint: survival time, mean or median, dose: 0.05 mg/kg/injection, schedule: Q01DX010 (ip), vehicle: saline",100 % of control and 118 % of control
same,T/C,"endpoint: survival time, mean or median, dose: 0.1 mg/kg/injection, schedule: Q01DX010 (ip), vehicle: saline",118 % of control and 120 % of control
Nc1nc(F)nc2c1ncn2C1OC(CO)C(O)C1O (stereo not given),T/C,[14],87 % of control
same,T/C,[15],87 % of control
same,T/C,[4],86 % of control
N#Cc1cn(C2OC(CO)C(O)C2O)c2ncnc(N)c12 (stereo not given),T/C,"endpoint: survival time, mean or median, dose: 31.0 micrograms/kg/injection, schedule: Q01DX010 (ip), vehicle: saline",96 % of control
same,T/C,[3],96 % of control
Nc1nc2n[nH]nc2c(=O)[nH]1,T/C,"endpoint: survival time, mean or median, dose: 25.0 mg/kg/injection, schedule: Q01DX010 (ip), vehicle: alkali diluted with saline",109 % of control
same,T/C,"endpoint: survival time, mean or median, dose: 50.0 mg/kg/injection, schedule: Q01DX010 (ip), vehicle: alkali diluted with saline",115 % of control and 118 % of control
same,T/C,"endpoint: survival time, mean or median, dose: 100.0 mg/kg/injection, schedule: Q01DX010 (ip), vehicle: alkali diluted with saline",120 % of control
same,T/C,"endpoint: survival time, mean or median, dose: 200.0 mg/kg/injection, schedule: Q01DX010 (ip), vehicle: alkali diluted with saline",100 % of control
NC(CC(=O)NO)C(=O)O (stereo not given),T/C,[8],96 % of control
same,T/C,[9],107 % of control
same,T/C,[10],115 % of control
same,T/C,[11],111 % of control
CC(CCC(C)OS(C)(=O)=O)OS(C)(=O)=O (stereo not given),T/C,[2],86 % of control
same,T/C,"endpoint: survival time, mean or median, dose: 8.0 mg/kg/injection, schedule: Q01DX010 (ip), vehicle: saline",100 % of control
Nc1nc(=S)c2ncn(C3OC(CO)C(O)C3O)c2[nH]1 (stereo not given),T/C,"endpoint: median survival time, dose: 0.5 mg/kg/injection, schedule: Q01DX009 (ip), vehicle: saline",114 % of control
same,T/C,"endpoint: median survival time, dose: 1.0 mg/kg/injection, schedule: Q01DX009 (ip), vehicle: saline",100 % of control
same,T/C,"endpoint: median survival time, dose: 2.0 mg/kg/injection, schedule: Q01DX009 (ip), vehicle: saline",105 % of control
same,T/C,"endpoint: median survival time, dose: 4.0 mg/kg/injection, schedule: Q01DX009 (ip), vehicle: saline",94 % of control
same,T/C,"endpoint: median survival time, dose: 8.0 mg/kg/injection, schedule: Q01DX009 (ip), vehicle: saline",96 % of control
same,T/C,[14],119 % of control
same,T/C,[15],112 % of control and 115 % of control
same,T/C,[1],100 % of control and 111 % of control
same,T/C,[2],96 % of control
O=[n+]1c2c(n([O-])c3ccccc31)-c1cccc3cccc-2c13,T/C,[16],86 % of control
CCN(CC)CCCC(C)Nc1c2ccc(Cl)cc2nc2ccc(OC)cc12 (stereo not given),T/C,[16],90 % of control
same,T/C,[17],90 % of control
same,T/C,[5],100 % of control
same,T/C,[6],112 % of control
Nc1ncnc2c1ncn2C1OC(COC=O)C(O)C1O (stereo not given),T/C,"endpoint: median survival time, dose: 13.8 mg/kg/injection, schedule: Q01DX003 (ip), vehicle: saline",90 % of control
same,T/C,"endpoint: median survival time, dose: 13.8 mg/kg/injection, schedule: Q12HX006 (ip), vehicle: saline",104 % of control
same,T/C,"endpoint: median survival time, dose: 27.6 mg/kg/injection, schedule: Q01DX003 (ip), vehicle: saline",104 % of control
same,T/C,"endpoint: median survival time, dose: 27.6 mg/kg/injection, schedule: Q12HX006 (ip), vehicle: saline",104 % of control
same,T/C,"endpoint: median survival time, dose: 55.2 mg/kg/injection, schedule: Q01DX003 (ip), vehicle: saline",104 % of control
same,T/C,"endpoint: median survival time, dose: 55.2 mg/kg/injection, schedule: Q12HX006 (ip), vehicle: saline",120 % of control
S=P(N1CC1)(N1CC1)N1CC1,T/C,"endpoint: survival time, mean or median, dose: 0.75 mg/kg/injection, schedule: Q01DX010 (ip), vehicle: saline",100 % of control
same,T/C,"endpoint: survival time, mean or median, dose: 1.5 mg/kg/injection, schedule: Q01DX010 (ip), vehicle: saline",104 % of control and 105 % of control
same,T/C,"endpoint: survival time, mean or median, dose: 3.0 mg/kg/injection, schedule: Q01DX010 (ip), vehicle: saline",100 % of control and 110 % of control
same,T/C,"endpoint: survival time, mean or median, dose: 6.0 mg/kg/injection, schedule: Q01DX010 (ip), vehicle: saline",104 % of control and 115 % of control
Nc1ncnc2c1ncn2C1OC(COP(=O)(O)O)C(O)C1O (stereo not given),T/C,"endpoint: median survival time, dose: 18.3 mg/kg/injection, schedule: Q01DX003 (ip), vehicle: saline",100 % of control
same,T/C,"endpoint: median survival time, dose: 18.3 mg/kg/injection, schedule: Q12HX006 (ip), vehicle: saline",109 % of control
same,T/C,"endpoint: median survival time, dose: 36.6 mg/kg/injection, schedule: Q01DX003 (ip), vehicle: saline",95 % of control
same,T/C,"endpoint: median survival time, dose: 36.6 mg/kg/injection, schedule: Q12HX006 (ip), vehicle: saline",111 % of control
same,T/C,"endpoint: median survival time, dose: 73.2 mg/kg/injection, schedule: Q01DX003 (ip), vehicle: saline",90 % of control
same,T/C,"endpoint: median survival time, dose: 73.3 mg/kg/injection, schedule: Q12HX006 (ip), vehicle: saline",104 % of control
Cc1cc2nc3c(=O)[nH]c(=O)nc-3n(CC(O)C(O)C(O)C(O)CO)c2cc1C (stereo not given),T/C,[18],97 % of control
same,T/C,[6],100 % of control
same,T/C,[7],87 % of control and 100 % of control
CC[n+]1c(-c2ccccc2)c2cc(N)ccc2c2ccc(N)cc21,T/C,"endpoint: survival time, mean or median, dose: 1.25 mg/kg/injection, schedule: Q01DX010 (ip), vehicle: saline",117 % of control
same,T/C,"endpoint: survival time, mean or median, dose: 2.5 mg/kg/injection, schedule: Q01DX010 (ip), vehicle: saline",121 % of control
same,T/C,"endpoint: survival time, mean or median, dose: 5.0 mg/kg/injection, schedule: Q01DX010 (ip), vehicle: saline",117 % of control
same,T/C,[19],121 % of control
O=P1(N(CCCl)CCCl)NCCCO1 (stereo not given),T/C,"endpoint: median survival time, dose: 12.5 mg/kg/injection, schedule: Q01DX007 (ip), vehicle: saline",116 % of control
same,T/C,"endpoint: median survival time, dose: 20.0 mg/kg/injection, schedule: Q01DX003 (ip), vehicle: saline",163 % of control
same,T/C,"endpoint: median survival time, dose: 25.0 mg/kg/injection, schedule: Q01DX007 (ip), vehicle: saline",116 % of control
same,T/C,"endpoint: median survival time, dose: 40.0 mg/kg/injection, schedule: Q01DX003 (ip), vehicle: saline",209 % of control and 724 % of control
same,T/C,"endpoint: median survival time, dose: 80.0 mg/kg/injection, schedule: Q01DX003 (ip), vehicle: saline",190 % of control and 722 % of control
same,T/C,[17],100 % of control
same,T/C,[18],115 % of control
same,T/C,[6],115 % of control
CN(Cc1cnc2nc(N)nc(N)c2n1)c1c(Cl)cc(C(=O)NC(CCC(=O)O)C(=O)O)cc1Cl (stereo not given),T/C,[19],300 % of control
same,T/C,"endpoint: survival time, mean or median, dose: 20.0 mg/kg/injection, schedule: Q01DX010 (ip), vehicle: saline",300 % of control
same,T/C,"endpoint: survival time, mean or median, dose: 40.0 mg/kg/injection, schedule: Q01DX010 (ip), vehicle: saline",300 % of control
same,T/C,"endpoint: survival time, mean or median, dose: 80.0 mg/kg/injection, schedule: Q01DX010 (ip), vehicle: saline",300 % of control
Nc1ncccc1C(=O)O,T/C,[12],100 % of control
same,T/C,[13],100 % of control
same,T/C,"endpoint: survival time, mean or median, dose: 250.0 mg/kg/injection, schedule: Q01DX010 (ip), vehicle: saline",107 % of control
same,T/C,"endpoint: survival time, mean or median, dose: 500.0 mg/kg/injection, schedule: Q01DX010 (ip), vehicle: saline",96 % of control
